Consider two compounds from US20230303547A1, “N-CYANOPYRROLIDINES WITH ACTIVITY AS USP30 INHIBITORS” (MISSION THERAPEUTICS LIMITED, priority 2020, published 2023).

The structures appear in SMILES notation.

The term IC50 denotes the concentration that inhibits the measured activity by half. As usually defined, the Papp A→B is the apparent permeability from the apical to the basolateral side of a cell layer.

Data set [1] relates to Eurofins CEREP SafetyScreen44 panel. Briefly: Eurofins CEREP SafetyScreen44 panel. The class given is binding. An excerpt:
Aside from selectivity over other DUB enzymes, it is important for a drug to have low affinity for other targets, and pharmacological profiling may be performed against panels of targets to assess the potential for, and to minimise, potential off-target effects. Examples of targets for which the compounds of the present invention may be screened against are those of the industry standard Eurofins-Cerep SafetyScreen44 panel, which includes 44 targets as a representative selection of GPCR receptors, transporters, ion channels, nuclear receptors, and kinase and non-kinase enzymes. Preferably, compounds of the invention have insignificant affinity against targets of this screening panel. Further examples of targets for which the compounds of the present invention may be screened against are kinases of the Thermo Fisher SelectScreen kinase profiling panel, which includes 39 targets as a representative selection of kinase enzymes. Preferably, compounds of the invention have insignificant affinity against targets of this screening panel. Additionally, examples of a particular enzyme class for which the compounds of the present invention may be screened against are the cathepsins (e.g. cathepsin A, B, C, H, K, L, L2, S, V and Z). Preferably, compounds of the invention have good selectivity for USP30 over one or more of these enzymes. […]

Data set [2] concerns the target Cathepsin V (Homo sapiens (Human), UniProt O60911). Briefly: Cathepsin V IC50. The class given is biochemical.
Data set [3] is described as follows: Mouse plasma stability. The class given is in vitro ADME. Particulars: read-out: Stability Mouse plasma t½. An excerpt:
Other parameters that may be measured using standard assays that are indicative of a compound’s exposure profile include, for example plasma stability (half-life measurement), blood AUC, Cmax, Cmin and Tmax values.

The target in data set [4] is hERG potassium channel (Homo sapiens (Human), UniProt Q12809). The data set can be described thus: hERG potassium channel current in CHO cells. The class given is cell-based. The following applies: 30 µM, stably expressed CHO cells. The procedure:
The hERG predictor assay provides valuable information about the possible binding of test compounds to the potassium channel and potential QT prolongation on […]. Inhibition of the hERG current causes QT interval prolongation resulting in potentially fatal ventricular tachyarrhythmia (Torsades de Pointes). Typically, assay data may be generated from an automated patch-clamp assay platform.
Example 2 was evaluated for effects on the hERG potassium channel, in stably expressed CHO cells at concentrations between 0.01 and 30 µM. Example 2 produced maximum inhibition value of 35% of the hERG current amplitude at 30 µM indicating little propensity for affecting the QT interval.
For orientation: hERG is a cardiac potassium channel; its block is linked to QT prolongation.

The subject of data set [5] is P-glycoprotein (MDR1), human. Briefly: MDR1-MDCK flux assay. The class given is in vitro ADME. The following applies: dog, read-out: MDR1-MDCK Effective Efflux Ratio. From the text: The treatment of CNS disorders, including Alzheimer’s disease, Parkinson’s disease, and other disorders described herein, requires drug molecules to target the brain, which requires adequate penetration of the blood brain barrier. […] The probability that a compound can cross the blood brain barrier may be measured by an in vitro flux assay utilizing a MDR1-MDCK cell monolayer (Madin-Darby Canine Kidney cells transfected with MDR-1 resulting in overexpression of the human efflux transporter P-glycoprotein). Additionally, exposure may also be measured directly in brain and plasma using in vivo animal models.
MDR1-MDCK (Madin-Darby Canine Kidney cell monolayer) (in vitro) flux assay.

Data set [6] is described as follows: WT-MDCK in vitro flux. The class given is in vitro ADME. Particulars: dog. An excerpt: WT-MDCK (wild-type) in vitro flux.
The test system of data set [7] is Salmonella typhimurium strains TA98, TA100, TA1535 and TA97a and the Escherichia Coli strain WP2 uvrA pKM101. The data set can be described thus: Bacterial reverse mutation assay (Ames). The format is cell-based. The following applies: up to 5000 µg/plate with and without metabolic activation. The procedure: The bacterial reverse mutation assay (Ames Test) may be used to evaluate the mutagenic properties of compounds of the invention, commonly by using the bacterial strain Salmonella typhimurium, which is mutant for the biosynthesis of the amino acid histidine.
(§1) Example 2 was assessed in the bacterial reverse mutation assay (Ames) and in vitro micronucleus assay. All in vitro tests were conducted with and without exogenous metabolic activation using concentrations up to those limited by cytotoxicity or insolubility.

The test system of data set [8] is TK6 cells. Briefly: In vitro micronucleus assay. The class given is cell-based. The following applies: 27 hours recovery. The procedure: The micronucleus assay may be used to determine if a compound is genotoxic by evaluating the presence of micronuclei. Micronuclei may contain chromosome fragments produced from DNA breakage (clastogens) or whole chromosomes produced by disruption of the mitotic apparatus (aneugens).
as §1
Induction of chromosome damage was assessed using the in vitro micronucleus assay in TK6 cells. Example 2 was negative for induction of micronuclei when incubated for 3 hours in the presence of exogenous metabolic activation followed by 27 hours recovery, and also when incubated for 27 hours in the absence of exogenous metabolic activation followed by 27 hours recovery.

Chain of Cathepsin V (O60911 114-334, species assumed): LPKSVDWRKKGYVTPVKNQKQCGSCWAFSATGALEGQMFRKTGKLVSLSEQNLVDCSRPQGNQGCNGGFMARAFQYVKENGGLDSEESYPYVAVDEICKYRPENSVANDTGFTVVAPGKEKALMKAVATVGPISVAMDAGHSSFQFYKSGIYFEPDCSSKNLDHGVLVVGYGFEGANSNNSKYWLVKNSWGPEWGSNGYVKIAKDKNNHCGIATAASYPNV
Chain of hERG potassium channel (Q12809 whole entry): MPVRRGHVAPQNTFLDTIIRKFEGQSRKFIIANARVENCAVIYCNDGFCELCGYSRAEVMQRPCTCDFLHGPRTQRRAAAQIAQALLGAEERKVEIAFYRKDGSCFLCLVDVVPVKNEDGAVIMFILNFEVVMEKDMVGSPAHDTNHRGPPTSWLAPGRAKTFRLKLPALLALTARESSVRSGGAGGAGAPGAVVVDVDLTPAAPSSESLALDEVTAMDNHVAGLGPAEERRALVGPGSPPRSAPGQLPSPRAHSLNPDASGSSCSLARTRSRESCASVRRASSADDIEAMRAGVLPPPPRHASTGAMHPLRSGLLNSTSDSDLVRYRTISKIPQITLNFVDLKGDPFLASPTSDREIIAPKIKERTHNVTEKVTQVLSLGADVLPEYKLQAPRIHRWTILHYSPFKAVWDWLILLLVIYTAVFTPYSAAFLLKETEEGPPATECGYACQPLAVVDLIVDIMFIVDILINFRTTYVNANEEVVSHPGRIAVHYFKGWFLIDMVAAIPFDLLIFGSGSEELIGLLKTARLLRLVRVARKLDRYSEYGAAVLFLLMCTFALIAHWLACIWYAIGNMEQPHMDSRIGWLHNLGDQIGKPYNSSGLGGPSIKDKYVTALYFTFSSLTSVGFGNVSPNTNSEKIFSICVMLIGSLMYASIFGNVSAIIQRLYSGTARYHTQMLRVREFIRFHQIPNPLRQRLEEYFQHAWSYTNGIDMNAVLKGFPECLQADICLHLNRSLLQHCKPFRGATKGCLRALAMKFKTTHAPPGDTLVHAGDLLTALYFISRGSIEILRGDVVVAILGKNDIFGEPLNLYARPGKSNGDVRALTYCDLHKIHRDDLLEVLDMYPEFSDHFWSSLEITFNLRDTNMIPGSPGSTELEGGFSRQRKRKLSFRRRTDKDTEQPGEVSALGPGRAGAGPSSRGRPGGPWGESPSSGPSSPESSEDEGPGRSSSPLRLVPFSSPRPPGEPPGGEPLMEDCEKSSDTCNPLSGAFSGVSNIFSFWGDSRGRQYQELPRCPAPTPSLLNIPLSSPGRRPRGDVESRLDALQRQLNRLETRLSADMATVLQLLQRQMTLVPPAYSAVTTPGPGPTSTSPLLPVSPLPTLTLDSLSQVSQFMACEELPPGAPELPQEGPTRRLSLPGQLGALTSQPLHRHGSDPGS

As to `C[C@@H]1C[C@@H](NC(=O)c2ncc(-c3cc(C#N)ccc3OC3CC3)o2)CN1C#N` [Example 1, 5-(5-cyano-2-cyclopropoxyphenyl)-N-((3R,5R)-1-cyano-5-methylpyrrolidin-3-yl)oxazole-2-carboxamide], the “affinity for targets in this assay” value in data set [1] is “low affinity”. Besides, inhibition in data set [2] was half-maximal at 30.9 µM (IC50). For the same compound, the half-life in data set [3] was greater than 2 h.
With `COC[C@@H]1C[C@@H](NC(=O)c2ncc(-c3cc(C#N)ccc3OC3CC3)o2)CN1C#N` [Example 2, 5-(5-cyano-2-cyclopropoxyphenyl)-N-((3R,5S)-1-cyano-5-(methoxymethyl)pyrrolidin-3-yl)oxazole-2-carboxamide], in data set [2], inhibition was half-maximal at 60.6 µM (IC50). Also, the “maximum inhibition of the hERG current amplitude” value in data set [4] stood at 35%. Further, in data set [3], the half-life was greater than 2 h. The results for the efflux ratio in data set [5] and in data set [6] were 15 and 0.7, respectively. The compound also had a Papp A→B in data set [6] (A-B) of 107 nm/s. In data set [7], the “induction of mutations in reverse mutation assay” value was “did not induce mutations”. Also, the induction of micronuclei result in data set [8] (3 hours in the presence of exogenous metabolic activation) and in data set [8] (27 hours in the absence of exogenous metabolic activation) was “negative” each time.
